Measurements reported in patent US9462810B2, “Method for inactivating viruses with slightly acidic arginine” (AJINOMOTO CO., INC., priority 2007, dated 2016).
Read-outs that look alike come from different tables or passages of the source.

Key:
Sendai viruses = experiment: Sendai virus inactivation by buffer solutions on ice for one hour, residual titer by plaque assay on Vero cells; format: cell-based; settings: 0.7M, pH 4.0, on ice one hour
[1] = test system: herpes simplex viruses type 1, strain F (HSV-1); experiment: HSV-1 inactivation by buffer solutions on ice for one hour, residual titer by plaque assay on Vero cells; format: cell-based
[2] = test system: influenza virus A/Aichi (H3N2); format: cell-based; settings: 0.15M, two minutes
[3] = test system: Influenza A viruses/Aichi; format: cell-based, Influenza A virus
BVDV = settings: 16 mM, 30° C., 10 hours, pH 4.5; cited from earlier work
[4] = Concentration 0.07 M, pH 4.0 (Example 4)
[5] = Concentration 0.14 M, pH 4.0 (Example 4)
[6] = Concentration 0.21 M, pH 4.0 (Example 4)
[7] = Concentration 0.28 M, pH 4.0 (Example 4)

Row | Structure (SMILES) | Virus Inactivating Efficiency (LRV) ([1]; 0.35M, pH 4.0 (Example 3)) | Virus Inactivating Efficiency (LRV) [1, 4] | Virus Inactivating Efficiency (LRV) [1, 5] | Virus Inactivating Efficiency (LRV) [1, 6] | Virus Inactivating Efficiency (LRV) [1, 7] | Virus Inactivating Efficiency (LRV) ([2]; pH 4.0, 21.6° C.) | Virus Inactivating Efficiency (LRV) ([2]; pH 4.2, 21.6° C.) | further results
1 | CCCC(=O)N[C@@H](CCCNC(=N)N)C(=O)O [Nα-butyroyl-L-arginine] | >5.5 | 0.7 | 2.2 | 4.3 | 6.0 | 4.05 |  | Virus Inactivating Efficiency (LRV) (Sendai viruses): >3.7; Virus Inactivating Efficiency (LRV) ([3]; 0.7M, pH 4.0, on ice one hour): 3.7
2 | Cl.N=C(N)NCCC[C@H](N)C(=O)O [arginine hydrochloride] | 4.2 | 0.5 | 1.1 | 2.2 | 3.1 | 3.87 |  | Virus Inactivating Efficiency (LRV) ([1]; Concentration 0.35 M, pH 4.0 (Example 4)): 4.5; Virus Inactivating Efficiency (LRV) ([3]; 0.7M, 20 mM sodium acetate, pH 4.0, on ice one hour): 3.7; Virus Inactivating Efficiency (LRV) ([3]; 1M, pH 4.3, on ice one hour): 2.4
3 | CCCCCCCC(=O)O [caprylic acid] |  |  |  |  |  |  |  | titer of BVDV decreased to (BVDV): 1/10000
4 | O=C1CC[C@@H](C(=O)O)N1 [PCA, pyrrolidone carboxylic acid] |  |  |  |  |  | 4.05 | 2.95 | 
5 | O=C([O-])CC(O)(CC(=O)[O-])C(=O)[O-].[Na+].[Na+].[Na+] [sodium citrate, reference compound] |  |  |  |  |  | 2.66 | 2.95 | Virus Inactivating Efficiency (LRV) ([1]; 0.1M, pH 3.5, on ice one hour (Example 1)): >5.7; Virus Inactivating Efficiency (LRV) ([1]; 0.1M, pH 3.5, on ice one hour (Example 1), listed as citrate buffer solution): > 5.7; Virus Inactivating Efficiency (LRV) ([1]; 0.1M, pH 4.0, on ice one hour (Example 1)): 1.5; Virus Inactivating Efficiency (LRV) ([1]; 0.1M, pH 4.3, on ice one hour (Example 1)): 0.1; Virus Inactivating Efficiency (LRV) ([1]; 0.1M, pH 4.3, on ice one hour (Example 1), listed as citrate buffer solution): the inactivation did not take place; Virus Inactivating Efficiency (LRV) ([2]; pH 3.8, 21.6° C.): 2.74; maximum LRV ([2]; within the pH range of 3.8 to 4.2, 21.6° C.): ≤ 2.95; Virus Inactivating Efficiency (LRV) ([3]; 0.1M, pH 3.5, on ice one hour): 2.1; Virus Inactivating Efficiency (LRV) ([3]; 0.1M, pH 4.0, on ice one hour): 1.5; Virus Inactivating Efficiency (LRV) ([3]; 0.1M, pH 4.3, on ice one hour): 1.3
